# ChEMBL document CHEMBL5120790, “Secondary Metabolites from Annulohypoxylon sp. and Structural Revision of Emericellins A and B” (2022)
# Key:
# Type in all cases: functional
# Escherichia coli = assay: Antibacterial activity against Escherichia coli assessed as reduction in microbial growth after 24 hrs by two-fold dilution method
# Staphylococcus aureus = assay: Antibacterial activity against Staphylococcus aureus assessed as reduction in microbial growth after 24 hrs by two-fold dilution method
# Bacillus subtilis = assay: Antibacterial activity against Bacillus subtilis assessed as reduction in microbial growth after 24 hrs by two-fold dilution method
# Candida albicans = assay: Antifungal activity against Candida albicans assessed as reduction in microbial growth after 3 days by two-fold dilution method
Molecule,MIC (Escherichia coli),MIC (Staphylococcus aureus),MIC (Bacillus subtilis),"MIC (Candida albicans; 72 h, time 3 day)",MIC (Candida albicans; time 3.0 day)
C[C@@]12CC[C@@](O)(CO)[C@@H](C1)[C@]1(C)CCC[C@]21C,64 µg/mL,64 µg/mL,32 µg/mL,> 256 µg/mL,–
C[C@H](C[C@@H](O)[C@H](O)C(C)(C)O)[C@H]1CC[C@@](C)(O)[C@@H](O)C1,64 µg/mL,64 µg/mL,64 µg/mL,> 256 µg/mL,–
C[C@@]12CC=C(CO)[C@@H](C1)[C@]1(C)CCC[C@]21C,64 µg/mL,32 µg/mL,32 µg/mL,> 256 µg/mL,–
C/C=C/C[C@H](CO)[C@H](O)[C@H](C)O,> 256 µg/mL,> 256 µg/mL,> 256 µg/mL,64 µg/mL,–
C[C@@]12CC[C@@](O)(CO)[C@@H](C1)[C@@]1(C)CCC[C@@]21C,64 µg/mL,64 µg/mL,64 µg/mL,> 256 µg/mL,–
CC[C@H](O)[C@H](O)C[C@H](C)O,> 256 µg/mL,> 256 µg/mL,> 256 µg/mL,64 µg/mL,–
C[C@]12CCC[C@@]1(C)[C@@H]1C[C@@]2(C)[C@H](O)C[C@@]1(O)CO,2 µg/mL,32 µg/mL,16 µg/mL,> 256 µg/mL,–
COc1cc2c(c(O)c1OC)CO[C@](C)(O)C2=O,> 256 µg/mL,> 256 µg/mL,> 256 µg/mL,32 µg/mL,–
NC[C@H]1O[C@H](O[C@H]2[C@H](O)[C@@H](O[C@H]3O[C@H](CO)[C@@H](O)[C@H](N)[C@H]3O)[C@H](N)C[C@@H]2N)[C@H](O)[C@@H](O)[C@@H]1O [KANAMYCIN],1 µg/mL,1 µg/mL,1 µg/mL,–,–
C[C@@]12CC[C@@](O)(CO)[C@@H](C1)[C@]1(C)C[C@@H](O)C[C@]21C,4 µg/mL,32 µg/mL,32 µg/mL,> 256 µg/mL,–
NYSTATIN,–,–,–,–,1 µg/mL
